Test results: patent publication US20070161542A1, “Ptb1b photoprobes” (priority 2003, published 2007)

Key:
Assay type in all cases: biochemical
Flag-PTP1B(1-320) = target: T1, Flag-PTP1B(1-320) (Homo sapiens, UniProt P18031); test: Enzyme kinetic assay (DiFMUP), Flag-PTP1B; settings: for IC50 shift in the presence of 0.1% protein: 0.1% protein (HSA) vs none; for IC50: in the dark; for Ki: non-irradiated probes, competitive, reversible inhibitors of PTP1B
T1 construct: Flag-PTP1B (residues 1-320 as a flag fusion); made in house
T1 sequence (P18031 1-320): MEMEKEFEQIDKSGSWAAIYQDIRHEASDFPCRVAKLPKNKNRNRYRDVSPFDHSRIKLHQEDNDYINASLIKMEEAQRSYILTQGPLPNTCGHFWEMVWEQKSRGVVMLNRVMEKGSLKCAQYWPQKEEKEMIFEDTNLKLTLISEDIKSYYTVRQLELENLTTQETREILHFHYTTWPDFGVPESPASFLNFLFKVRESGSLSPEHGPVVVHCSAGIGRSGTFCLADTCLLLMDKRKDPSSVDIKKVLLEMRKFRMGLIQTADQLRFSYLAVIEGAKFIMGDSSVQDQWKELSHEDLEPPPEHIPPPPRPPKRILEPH
Text: (§1) Protein tyrosine phosphatases used in this study were expressed and purified using published procedures, as follows: (a) Flag-PTP1B (residues 1-320 as a flag fusion), Huyer et al. (29). (b) Flag-TCPTP (residues 1-281 as a flag fusion), Asante-Appiah et al. (30). (c) Flag-CD45 (residues 556-1268 as a flag fusion), Wang et al. (31). (d) Mutant C215S-PTP1B (residues 1-320 as a gst fusion), Skorey et al. (28). (e) Infected SF9 cell lysate expressing full-length PTP1B (as a flag fusion), Cromlish et al. (25). For studies using H2O2-inactivated Flag-PTP1B, 100 μl of 2 μg/ml PTP1B was incubated with 100 μl of 1 mM or 20 mM H2O2 for 15 min to obtain 50% or 100% inactivated enzyme respectively as determined by the enzyme kinetic assay.
Kinetic measurements were performed using a Spectromax Gemini fluorescent plate reader (Molecular Devices, Sunnyvale, Calif.) in a 96-well plate format. Briefly, to 170 μl of BisTris buffer (50 mM BisTris, with and without 150 mM NaCl, 2 mM EDTA, 5 mM DMH, pH 6.3) containing 0-100 μM DiFMUP with or without 0.1% human serum albumin was added 10 μl of 10 or 50 μM photoprobe in water in a three-fold serial dilution. The reaction was initiated by the addition of 20 μl of 0.04 μg/ml Flag-PTP1B, Flag-TCPTP (0.04 μg/ml) or Flag-CD45 (0.01 μg/ml) in BisTris buffer containing 20% glycerol and 0.01% Triton X-100. The conversion of DiFMUP to DiFMU was monitored continuously for 5 min with excitation at 360 nm and emission at 450 nm (cutoff filter at 435 nm). IC50 values were calculated by nonlinear regression fit of the initial rates versus inhibitor concentration obtained using 10 μM DiFMUP using the Softmax Pro software (version 3.11, Molecular Devices). Ki values were determined by non-linear regression fit of the initial rates versus substrate concentration at various inhibitor concentrations using the kinetic equation software from Grafit software (Erithacus Software).

Flag-CD45 = target: T2, Flag-CD45 (Mus musculus, UniProt P06800); test: Enzyme kinetic assay (DiFMUP), Flag-CD45; settings: Flag-CD45, in the dark, 10 μM DiFMUP
T2 construct: Flag-CD45 (residues 556-1268 as a flag fusion); made in house
T2 sequence (P06800 581-1293 limits assumed): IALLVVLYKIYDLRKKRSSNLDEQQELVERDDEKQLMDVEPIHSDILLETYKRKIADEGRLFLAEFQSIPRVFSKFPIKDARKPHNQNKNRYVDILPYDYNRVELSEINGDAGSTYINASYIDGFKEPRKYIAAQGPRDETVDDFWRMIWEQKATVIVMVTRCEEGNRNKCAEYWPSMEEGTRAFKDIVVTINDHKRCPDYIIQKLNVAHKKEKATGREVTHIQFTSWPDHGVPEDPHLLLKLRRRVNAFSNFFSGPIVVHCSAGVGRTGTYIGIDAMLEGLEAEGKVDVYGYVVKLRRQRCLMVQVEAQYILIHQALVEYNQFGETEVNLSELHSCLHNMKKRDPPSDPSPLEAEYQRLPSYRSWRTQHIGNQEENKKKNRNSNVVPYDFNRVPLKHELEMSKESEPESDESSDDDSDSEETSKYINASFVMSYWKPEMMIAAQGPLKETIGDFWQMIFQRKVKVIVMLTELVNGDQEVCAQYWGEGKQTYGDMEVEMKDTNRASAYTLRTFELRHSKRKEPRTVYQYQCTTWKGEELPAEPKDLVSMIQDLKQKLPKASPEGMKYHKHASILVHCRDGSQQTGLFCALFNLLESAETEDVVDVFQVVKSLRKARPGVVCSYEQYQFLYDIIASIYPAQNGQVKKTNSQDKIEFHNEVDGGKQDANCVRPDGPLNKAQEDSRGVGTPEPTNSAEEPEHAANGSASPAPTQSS
Text: as §1
(§2) Kinetic measurements were performed using a Spectromax Gemini fluorescent plate reader (Molecular Devices, Sunnyvale, Calif.) in a 96-well plate format. […] The conversion of DiFMUP to DiFMU was monitored continuously for 5 min with excitation at 360 nm and emission at 450 nm (cutoff filter at 435 nm). […] Ki values were determined by non-linear regression fit of the initial rates versus substrate concentration at various inhibitor concentrations using the kinetic equation software from Grafit software (Erithacus Software).

Flag-TCPTP = target: T3, Flag-TCPTP (Homo sapiens, UniProt P17706); test: Enzyme kinetic assay (DiFMUP), Flag-TCPTP; settings: in the dark, 10 μM DiFMUP
T3 construct: Flag-TCPTP (residues 1-281 as a flag fusion); made in house
T3 sequence (P17706 1-281): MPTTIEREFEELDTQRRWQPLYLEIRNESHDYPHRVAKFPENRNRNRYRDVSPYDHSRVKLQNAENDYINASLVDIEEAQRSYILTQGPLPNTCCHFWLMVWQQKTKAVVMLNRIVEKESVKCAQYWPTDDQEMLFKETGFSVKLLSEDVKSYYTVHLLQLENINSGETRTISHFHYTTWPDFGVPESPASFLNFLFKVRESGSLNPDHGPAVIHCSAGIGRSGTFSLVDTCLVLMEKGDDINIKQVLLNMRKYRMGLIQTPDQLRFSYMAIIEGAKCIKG
Text: as §1, §2

[1] = Flag-PTP1B(1-320), 10 μM DiFMUP

| IC50 shift in the presence of 0.1% protein (Flag-PTP1B(1-320)) | IC50 (Flag-PTP1B(1-320); Fla-PTP1B + 0.1% HSA) [nM] | IC50 (Flag-PTP1B(1-320); [1]) [nM] | Ki (Flag-PTP1B(1-320)) [nM] | IC50 (Flag-CD45) [nM] | IC50 (Flag-TCPTP) [nM] | SMILES |
| --- | --- | --- | --- | --- | --- | --- |
| 7 fold | 1.5 | 0.2 | 0.1 | 490 | 0.1 | NC(=O)[C@H](Cc1ccc(C(F)(F)P(=O)(O)O)c(Br)c1)NC(=O)[C@H](Cc1ccc(C(F)(F)P(=O)(O)O)c(Br)c1)NC(=O)c1cc(I)cc(C2(C(F)(F)F)N=N2)c1 [Example 1, Tetraamnionium 3-bromo-4-(difluoro(phosphonato)methyl)-N-(3-iodo-5-(3-(trifluoromethyl)-3H-diaziren-3-yl)benzoyl)-L-phenylalanyl-3-bromo-4-(difluoro(phosphonato)methyl)-L-phenylalaninamide] |
| not significantly affected | 14 | 11 | 5 | 12600 | 6 | NC(=O)[C@H](Cc1ccc(C(F)(F)P(=O)(O)O)cc1)NC(=O)[C@H](Cc1ccc(C(F)(F)P(=O)(O)O)cc1)NC(=O)c1cc(I)cc(C2(C(F)(F)F)N=N2)c1 [Example 9, 4-(Difluoro(phosphono)methyl)-N-(3-iodo-5-(3-(trifluoromethyl)-3H-diaziren-3-yl)benzoyl)-L-phenylalanyl-4-(difluoro(phosphono)methyl)-L-phenylalaninamide] |
